Active and inactive are the calls of the source. No cut-off for these calls is given here.

Experiment [1] relates to Rattus norvegicus. The experiment can be described thus: Antiulcer activity in po dosed Sprague-Dawley rat assessed as dose required to inhibition of cold-restraint induced gastric erosions after 3 hrs. Type of experiment: functional, Stomach.
Experiment [2] has as its system Rattus norvegicus. The experiment can be described thus: Antisecretory activity in four-hours pylorus-ligated Sprague-Dawley rat assessed as inhibition of basal gastric secretion at 10 mg/kg administered intraduodenally. Type of experiment: functional, organism-based. Also noted: dose 10 mg/kg. The following applies: Stomach.
The subject of experiment [3] is Rattus norvegicus. The experiment can be described thus: Antisecretory activity in four-hours pylorus-ligated Sprague-Dawley rat assessed as inhibition of basal gastric secretion at 30 mg/kg administered intraduodenally. Type of experiment: functional. The following applies: Stomach; for inhibition in vivo at 30 mg/kg: 4 h, route intraduodenal.

As to `Cl.NC(=S)C1CCCc2cccnc21` (centres undefined), the “Effective oral dose inhibiting gastric erosions” value in the experiment on Rattus norvegicus [1] is 3 mg/kg. For the same compound, the inhibition entry in the experiment with Rattus norvegicus [2] was “Active”. Turning to `Cc1cnc2c(c1)CCCC2C(=S)NCCCc1ccccc1.Cl` (centres undefined), in the experiment on Rattus norvegicus [1], the “Effective oral dose inhibiting gastric erosions” value was 100 mg/kg. Moreover, the inhibition result in the experiment on Rattus norvegicus [3] is “inactive”. Regarding `Cc1cnc2c(c1)CCCC2C(N)=O` (centres undefined), the “Effective oral dose inhibiting gastric erosions” value in the experiment on Rattus norvegicus [1] amounted to 100 mg/kg. Turning to `CNC(=S)C1CCCc2cccnc21.Cl` (centres undefined), the “Effective oral dose inhibiting gastric erosions” value in the experiment on Rattus norvegicus [1] was 3 mg/kg. Moreover, the inhibition entry with Rattus norvegicus [2] was “Active”.

Usually inhibition in vivo stands for the share of the control response that was lost under treatment. For `CNC(=S)C1CCCc2cc(C)cnc21` (centres undefined), in the experiment on Rattus norvegicus [1], the “Effective oral dose inhibiting gastric erosions” value was found to be 30 mg/kg. Moreover, the inhibition in vivo at 30 mg/kg with Rattus norvegicus [3] is less than 10%. On to `Cl.NC(=S)C1CCCc2cc3c(nc21)CCC3` (centres undefined), for which the “Effective oral dose inhibiting gastric erosions” value with Rattus norvegicus [1] came to 100 mg/kg. For the same compound, in the experiment on Rattus norvegicus [3], the inhibition in vivo at 30 mg/kg is less than 70%.

Turning to `Cc1cnc2c(c1)C(C)CCC2C(N)=S.Cl` (centres undefined), the “Effective oral dose inhibiting gastric erosions” value with Rattus norvegicus [1] came out at 30 mg/kg. The inhibition entry in the experiment with Rattus norvegicus [2] is “Active”. Turning to `CCc1ccc2c(n1)C(C(N)=S)CCC2` (centres undefined), the inhibition in vivo at 30 mg/kg in the experiment with Rattus norvegicus [3] was less than 70%. As to `Cc1cnc2c(c1)CCCC2c1nc(C)cs1.Cl` (centres undefined), the “Effective oral dose inhibiting gastric erosions” value in the experiment with Rattus norvegicus [1] was found to be 100 mg/kg. For the same compound, the inhibition result in the experiment on Rattus norvegicus [3] is “inactive”. On to `NC(=S)C1CCCc2cc3c(nc21)CCCCC3` (centres undefined), for which the “Effective oral dose inhibiting gastric erosions” value with Rattus norvegicus [1] turned out to be 30 mg/kg. Besides, in the experiment on Rattus norvegicus [3], the inhibition in vivo at 30 mg/kg is less than 70%. As for `Cc1cnc2c(c1)CCC(C)(C)C2C(N)=S.Cl` (centres undefined), the “Effective oral dose inhibiting gastric erosions” value in the experiment with Rattus norvegicus [1] amounted to 100 mg/kg. For the same compound, the inhibition entry with Rattus norvegicus [3] was “inactive”. In the case of `Cc1cnc2c(c1)CCCC2C1=NCCCN1.Cl` (centres undefined), the “Effective oral dose inhibiting gastric erosions” value in the experiment with Rattus norvegicus [1] was found to be 100 mg/kg. Further, the inhibition result in the experiment with Rattus norvegicus [3] is “inactive”. In the case of `Cc1cc(C)c2c(n1)C(C(N)=S)CCC2` (centres undefined), the inhibition in vivo at 30 mg/kg with Rattus norvegicus [3] was less than 70%. Take `Cc1cnc2c(c1C)CCCC2C(N)=S` (centres undefined): the inhibition in vivo at 30 mg/kg in the experiment with Rattus norvegicus [3] is more than 70%. For `Cc1cc2c([n+]([O-])c1)C(C#N)CCC2` (centres undefined), the “Effective oral dose inhibiting gastric erosions” value in the experiment with Rattus norvegicus [1] was 100 mg/kg. For the same compound, in the experiment with Rattus norvegicus [3], the inhibition entry is “inactive”. Consider `NC(=S)C1CCCc2cc3c(nc21)CCCC3` (centres undefined), for which the “Effective oral dose inhibiting gastric erosions” value in the experiment on Rattus norvegicus [1] stood at 100 mg/kg. Besides, the inhibition in vivo at 30 mg/kg in the experiment on Rattus norvegicus [3] was less than 70%. Consider `CNC(=S)C1CCCc2c1ncc1c2CCCC1` (centres undefined), for which the “Effective oral dose inhibiting gastric erosions” value in the experiment with Rattus norvegicus [1] is 100 mg/kg. In the experiment with Rattus norvegicus [3], the inhibition result is “inactive”. Consider `CC1CNC2C(CCCC2C(N)=S)C1` (centres undefined), for which the inhibition entry in the experiment on Rattus norvegicus [3] is “inactive”.

On to `Cc1cnc2c(c1)CCCC2C(N)=S.Cl` (centres undefined) [TIQUINAMIDE HYDROCHLORIDE], for which the “Effective oral dose inhibiting gastric erosions” value in the experiment on Rattus norvegicus [1] worked out at 10 mg/kg. For the same compound, in the experiment with Rattus norvegicus [2], the inhibition entry is “Active”. Turning to `NC(=S)C1CCCc2c1ncc1c2CCCC1` (centres undefined), the “Effective oral dose inhibiting gastric erosions” value in the experiment with Rattus norvegicus [1] is 30 mg/kg. Also, the inhibition in vivo at 30 mg/kg with Rattus norvegicus [3] was less than 70%.

In the case of `Cl.NC(=S)C1CCCc2cc3ccccc3nc21` (centres undefined), the “Effective oral dose inhibiting gastric erosions” value in the experiment with Rattus norvegicus [1] came to 30 mg/kg. Moreover, in the experiment on Rattus norvegicus [3], the inhibition result is “inactive”. For `Cc1cnc2c(c1)CCCC2C1=NCCN1.Cl` (centres undefined), in that order: 100 mg/kg and “inactive”. Take `Cl.NC(=S)C1CCCc2ccc(-c3ccccc3)nc21` (centres undefined): the “Effective oral dose inhibiting gastric erosions” value in the experiment with Rattus norvegicus [1] is 30 mg/kg. Also, the inhibition entry in the experiment with Rattus norvegicus [3] was “inactive”.

With `N#CC1CCCc2ccc(-c3ccccc3)nc21` (centres undefined), the “Effective oral dose inhibiting gastric erosions” value with Rattus norvegicus [1] is 100 mg/kg. Moreover, the inhibition result in the experiment on Rattus norvegicus [3] was “inactive”. For `N#CC1CCCc2cccnc21` (centres undefined), in the experiment on Rattus norvegicus [3], the inhibition in vivo at 30 mg/kg was less than 70%. For the compound `Cc1cnc2c(c1)CC(C)CC2C(N)=S.Cl` (centres undefined), the “Effective oral dose inhibiting gastric erosions” value in the experiment on Rattus norvegicus [1] is 10 mg/kg. In addition, the inhibition in vivo at 30 mg/kg in the experiment on Rattus norvegicus [3] is more than 70%. Regarding `Cc1ccc2c(n1)C(C(N)=S)CCC2` (centres undefined), the “Effective oral dose inhibiting gastric erosions” value with Rattus norvegicus [1] turned out to be 10 mg/kg. The inhibition result with Rattus norvegicus [2] was “Active”.

In the case of `CC(C)(C)c1ccc2c(n1)C(C(N)=S)CCC2` (centres undefined), the “Effective oral dose inhibiting gastric erosions” value in the experiment on Rattus norvegicus [1] worked out at 30 mg/kg. For the same compound, the inhibition result in the experiment on Rattus norvegicus [3] is “inactive”.

For the compound `CC(=O)OC1(C(N)=S)CCCc2cc(C)cnc21` (centres undefined), the inhibition entry with Rattus norvegicus [3] is “inactive”. Consider `CNC(=S)C1(C(=S)NC)CCc2cc(C)cnc21`, for which the “Effective oral dose inhibiting gastric erosions” value in the experiment with Rattus norvegicus [1] came out at 100 mg/kg. Further, the inhibition entry in the experiment on Rattus norvegicus [3] was “inactive”.

Turning to `CNC(=S)C1(OC)CCCc2cc(C)cnc21` (centres undefined), the inhibition entry in the experiment with Rattus norvegicus [3] is “inactive”. With `Cc1cnc2c(c1)CCCC2(C)C(N)=S.Cl` (centres undefined), the “Effective oral dose inhibiting gastric erosions” value with Rattus norvegicus [1] worked out at 100 mg/kg. Moreover, the inhibition entry in the experiment on Rattus norvegicus [3] was “inactive”. As for `Cc1cc(-c2ccccc2)c2c(n1)C(C(N)=S)CCC2` (centres undefined), the inhibition entry with Rattus norvegicus [3] was “inactive”. For the compound `Cc1cnc2c(c1)CCCC2C(=S)N(C)C` (centres undefined), the “Effective oral dose inhibiting gastric erosions” value in the experiment with Rattus norvegicus [1] came out at 100 mg/kg. For the same compound, the inhibition result with Rattus norvegicus [3] is “inactive”. With `NC(=S)c1cccc2c1NCCC2`, the inhibition entry with Rattus norvegicus [3] is “inactive”. `Cc1cnc2c(c1)CCCC2C(=S)NCc1ccccc1.Cl` (centres undefined): the “Effective oral dose inhibiting gastric erosions” value with Rattus norvegicus [1] came to 100 mg/kg. Besides, the inhibition entry in the experiment with Rattus norvegicus [3] is “inactive”. As to `CCCCNC(=S)C1CCCc2cc(C)cnc21.Cl` (centres undefined), in the experiment with Rattus norvegicus [1], the “Effective oral dose inhibiting gastric erosions” value was 100 mg/kg. For the same compound, the inhibition in vivo at 30 mg/kg in the experiment on Rattus norvegicus [3] was less than 70%. Take `Cl.NC(=S)C1CCc2cc3c(nc21)CCC3` (centres undefined): in the experiment on Rattus norvegicus [1], the “Effective oral dose inhibiting gastric erosions” value was determined as 100 mg/kg. In addition, in the experiment with Rattus norvegicus [3], the inhibition in vivo at 30 mg/kg was less than 70%.

Turning to `NC(=S)Cc1ccc2c(n1)CCCC2`, the “Effective oral dose inhibiting gastric erosions” value in the experiment on Rattus norvegicus [1] amounted to 30 mg/kg. Besides, in the experiment with Rattus norvegicus [3], the inhibition entry is “inactive”. As to `CNC(=S)C1CCCc2cc3ccccc3nc21` (centres undefined), in the experiment on Rattus norvegicus [3], the inhibition in vivo at 30 mg/kg was less than 10%. In the case of `CCCCc1ccc2c(n1)C(C(N)=S)CCC2` (centres undefined), the “Effective oral dose inhibiting gastric erosions” value in the experiment with Rattus norvegicus [1] stood at 100 mg/kg. The inhibition in vivo at 30 mg/kg in the experiment on Rattus norvegicus [3] is less than 70%.

With `Cc1cnc2c(c1)CCCC2C#N.Cl` (centres undefined), in the experiment on Rattus norvegicus [1], the “Effective oral dose inhibiting gastric erosions” value turned out to be 100 mg/kg. Besides, in the experiment on Rattus norvegicus [3], the inhibition in vivo at 30 mg/kg is less than 70%. Consider `Cc1cnc2c(c1)CCC2C(N)=S.Cl` (centres undefined), for which, in the experiment with Rattus norvegicus [1], the “Effective oral dose inhibiting gastric erosions” value came to 30 mg/kg. Moreover, the inhibition entry with Rattus norvegicus [3] was “inactive”. `CNC(=S)C1(C(=S)NC)CCc2cc3ccccc3nc21.Cl`: the “Effective oral dose inhibiting gastric erosions” value with Rattus norvegicus [1] is 100 mg/kg. Besides, the inhibition result in the experiment on Rattus norvegicus [3] is “inactive”.

Turning to `Cc1ccnc2c1CCCC2C(N)=S.Cl` (centres undefined), the “Effective oral dose inhibiting gastric erosions” value in the experiment with Rattus norvegicus [1] is 30 mg/kg. For the same compound, the inhibition result in the experiment with Rattus norvegicus [2] was “Active”. Consider `NC(=S)c1cccc2cccnc12`, for which the inhibition result with Rattus norvegicus [2] was “Active”. Turning to `NC(=O)C1CCCc2ccc(-c3ccccc3)nc21` (centres undefined), the “Effective oral dose inhibiting gastric erosions” value in the experiment with Rattus norvegicus [1] came to 100 mg/kg.

For the compound `Cc1cc2c([n+]([O-])c1)C(C(N)=S)CCC2` (centres undefined), in the experiment on Rattus norvegicus [1], the “Effective oral dose inhibiting gastric erosions” value was determined as 100 mg/kg. In addition, the inhibition result in the experiment on Rattus norvegicus [3] is “inactive”. Turning to `CNC(=S)C1(C(=S)NC)CCCc2cccnc21.Cl`, in the experiment on Rattus norvegicus [1], the “Effective oral dose inhibiting gastric erosions” value was 100 mg/kg. The inhibition entry in the experiment with Rattus norvegicus [3] was “inactive”. In the case of `Cl.NC(=S)C1CCCCc2cc3c(nc21)CCCCC3` (centres undefined), the “Effective oral dose inhibiting gastric erosions” value in the experiment with Rattus norvegicus [1] was 100 mg/kg. For the same compound, the inhibition result with Rattus norvegicus [3] was “inactive”. Consider `Cc1cnc2c(c1)CCCC2C(=S)Nc1ccccc1` (centres undefined), for which the “Effective oral dose inhibiting gastric erosions” value in the experiment with Rattus norvegicus [1] was 100 mg/kg. For the same compound, the inhibition entry in the experiment on Rattus norvegicus [3] was “inactive”.

These data come from ChEMBL document CHEMBL3244349, “5,6,7,8-Tetrahydroguinolines. 4. Antiulcer and antisecretory activity of 5,6,7,8-tetrahydroquinolinenitriles and -thioamides” (1977).
